Measured values from paper PMC5218480 (PLoS ONE, 2017).

Tested on: MV-4-11 cells
Assay: Gene expression microarray analysis (Affymetrix PrimeView) and GSEA
Assay type: cell-based, human
Parameters: RFU PODN (11730768_x_at) / Fold change /veh PODN (11730768_x_at) / RFU LINC00158 (11744669_a_at) / Fold change /veh LINC00158 (11744669_a_at) / RFU DUSP10 (11751237_a_at) / Fold change /veh DUSP10 (11751237_a_at) / RFU ID3 (11757404_x_at) / Fold change /veh ID3 (11757404_x_at) / RFU PLEKHG5 (11737974_s_at) / Fold change /veh PLEKHG5 (11737974_s_at) / RFU LRRC4B (11730491_at) / Fold change /veh LRRC4B (11730491_at) / RFU GIMAP4 (11747438_a_at) / Fold change /veh GIMAP4 (11747438_a_at) / RFU KRT8 (11758183_x_at) / Fold change /veh KRT8 (11758183_x_at) / RFU CNN1 (11734310_a_at) / Fold change /veh CNN1 (11734310_a_at) / RFU VPS37D (11726825_at) / Fold change /veh VPS37D (11726825_at) / RFU C10orf10 (11716522_x_at) / Fold change /veh C10orf10 (11716522_x_at) / RFU KIR2DL2 /// KIR2DL4 /// KIR2DL5A /// KIR2DL5B /// KIR2DS1 /// KIR2DS2 /// KIR2DS3 /// KIR2DS4 /// KIR3DL3 /// KIR3DL3 /// KIR3DS1 (11738374_at) / Fold change /veh KIR2DL2 /// KIR2DL4 /// KIR2DL5A /// KIR2DL5B /// KIR2DS1 /// KIR2DS2 /// KIR2DS3 /// KIR2DS4 /// KIR3DL3 /// KIR3DL3 /// KIR3DS1 (11738374_at) / RFU C1QL1 (11718748_at) / Fold change /veh C1QL1 (11718748_at) / RFU TMPRSS4 (11747572_a_at) / Fold change /veh TMPRSS4 (11747572_a_at) / RFU HAMP (11756126_x_at) / Fold change /veh HAMP (11756126_x_at) / RFU RNFT2 (11725882_a_at) / Fold change /veh RNFT2 (11725882_a_at) / RFU NR4A2 (11747474_a_at) / Fold change /veh NR4A2 (11747474_a_at) / RFU ABCC12 (11746883_a_at) / Fold change /veh ABCC12 (11746883_a_at) / RFU TMEM136 (11760407_x_at) / Fold change /veh TMEM136 (11760407_x_at) / RFU CLDN22 /// WWC2 (11732394_at) / Fold change /veh CLDN22 /// WWC2 (11732394_at) / RFU HLA-DPB1 (11760878_x_at) / Fold change /veh HLA-DPB1 (11760878_x_at) / RFU SPINT1 (11716480_a_at) / Fold change /veh SPINT1 (11716480_a_at) / RFU GAP43 (11754022_s_at) / Fold change /veh GAP43 (11754022_s_at) / RFU A4GNT (11735810_at) / Fold change /veh A4GNT (11735810_at) / RFU PRB3 (11715151_x_at) / Fold change /veh PRB3 (11715151_x_at) / RFU TUBB4B (11761932_at) / Fold change /veh TUBB4B (11761932_at) / RFU CAPN14 (11732068_a_at) / Fold change /veh CAPN14 (11732068_a_at) / RFU TMCC2 (11721928_a_at) / Fold change /veh TMCC2 (11721928_a_at) / RFU IRGQ (11745062_a_at) / Fold change /veh IRGQ (11745062_a_at) / RFU FAM174B (11720279_a_at) / Fold change /veh FAM174B (11720279_a_at) / RFU TMPRSS4 (11748680_a_at) / Fold change /veh TMPRSS4 (11748680_a_at) / RFU FAM212B (11763350_a_at) / Fold change /veh FAM212B (11763350_a_at) / RFU PLEKHG5 (11743358_a_at) / Fold change /veh PLEKHG5 (11743358_a_at) / RFU ZSCAN30 (11745921_a_at) / Fold change /veh ZSCAN30 (11745921_a_at) / RFU CMKLR1 (11741424_a_at) / Fold change /veh CMKLR1 (11741424_a_at) / RFU LOC101060620 /// MAPK8IP1 (11723275_at) / Fold change /veh LOC101060620 /// MAPK8IP1 (11723275_at) / RFU SPTSSB (11747773_x_at) / Fold change /veh SPTSSB (11747773_x_at) / RFU PRSS12 (11739890_at) / Fold change /veh PRSS12 (11739890_at) / RFU BIN1 (11741810_x_at) / Fold change /veh BIN1 (11741810_x_at) / RFU WNT11 (11732464_a_at) / Fold change /veh WNT11 (11732464_a_at) / RFU C10orf10 (11716521_a_at) / Fold change /veh C10orf10 (11716521_a_at) / RFU C5orf56 (11738089_at) / Fold change /veh C5orf56 (11738089_at) / RFU CYB561 (11721691_x_at) / Fold change /veh CYB561 (11721691_x_at) / RFU ANKRD19P (11752326_a_at) / Fold change /veh ANKRD19P (11752326_a_at) / RFU OR2T12 /// OR2T33 /// OR2T8 (11738714_s_at) / Fold change /veh OR2T12 /// OR2T33 /// OR2T8 (11738714_s_at) / RFU VCAN (11748164_a_at) / Fold change /veh VCAN (11748164_a_at) / RFU JSRP1 (11732532_at) / Fold change /veh JSRP1 (11732532_at) / RFU KRTAP10-11 (11738290_x_at) / Fold change /veh KRTAP10-11 (11738290_x_at) / RFU MYO3A (11730013_a_at) / Fold change /veh MYO3A (11730013_a_at) / RFU EBF3 (11725865_a_at) / Fold change /veh EBF3 (11725865_a_at) / RFU CAMK2N1 (11719241_x_at) / Fold change /veh CAMK2N1 (11719241_x_at) / RFU C5orf56 (11738088_a_at) / Fold change /veh C5orf56 (11738088_a_at) / RFU OLFML3 (11715873_a_at) / Fold change /veh OLFML3 (11715873_a_at) / RFU LOC100653217 /// NTM (11731650_a_at) / Fold change /veh LOC100653217 /// NTM (11731650_a_at) / RFU MAPK11 (11762145_a_at) / Fold change /veh MAPK11 (11762145_a_at) / RFU FIZ1 (11724087_x_at) / Fold change /veh FIZ1 (11724087_x_at) / RFU OASL (11726364_x_at) / Fold change /veh OASL (11726364_x_at) / RFU SOX15 (11748057_x_at) / Fold change /veh SOX15 (11748057_x_at) / RFU CD79A (11719716_a_at) / Fold change /veh CD79A (11719716_a_at) / RFU HIST1H1D (11736915_at) / Fold change /veh HIST1H1D (11736915_at) / RFU CASKIN2 (11723855_a_at) / Fold change /veh CASKIN2 (11723855_a_at) / RFU LOC730098 (11760151_x_at) / Fold change /veh LOC730098 (11760151_x_at) / RFU OR4N2 (11742367_at) / Fold change /veh OR4N2 (11742367_at) / RFU PRRT2 (11749266_a_at) / Fold change /veh PRRT2 (11749266_a_at) / RFU SNX32 (11753110_a_at) / Fold change /veh SNX32 (11753110_a_at) / RFU CDHR5 (11726645_a_at) / Fold change /veh CDHR5 (11726645_a_at) / RFU RCAN1 (11760418_a_at) / Fold change /veh RCAN1 (11760418_a_at) / RFU FAM167A (11723789_a_at) / Fold change /veh FAM167A (11723789_a_at) / RFU FAM26E (11764081_at) / Fold change /veh FAM26E (11764081_at) / RFU ISYNA1 (11749810_s_at) / Fold change /veh ISYNA1 (11749810_s_at) / RFU ACY1 (11761880_at) / Fold change /veh ACY1 (11761880_at) / RFU 11764098_at / Fold change /veh 11764098_at / RFU SAMD14 (11745864_x_at) / Fold change /veh SAMD14 (11745864_x_at) / RFU NPB (11741838_a_at) / Fold change /veh NPB (11741838_a_at) / RFU TMPRSS6 (11731388_a_at) / Fold change /veh TMPRSS6 (11731388_a_at) / RFU KRTAP10-2 (11738614_at) / Fold change /veh KRTAP10-2 (11738614_at) / RFU ARHGAP8 /// PRR5-ARHGAP8 (11727945_x_at) / Fold change /veh ARHGAP8 /// PRR5-ARHGAP8 (11727945_x_at) / RFU KRTAP5-7 /// NADSYN1 (11734609_at) / Fold change /veh KRTAP5-7 /// NADSYN1 (11734609_at) / RFU RASL12 (11751679_a_at) / Fold change /veh RASL12 (11751679_a_at) / RFU CDKN2B (11736163_a_at) / Fold change /veh CDKN2B (11736163_a_at) / RFU PRF1 (11729649_at) / Fold change /veh PRF1 (11729649_at) / RFU, ZNF638 /// ZNF638-IT1 / Fold change vs veh, ZNF638 /// ZNF638-IT1 / RFU, PANK3 / Fold change vs veh, PANK3 / RFU, SH3YL1 / Fold change vs veh, SH3YL1 / RFU, ZEB2 / Fold change vs veh, ZEB2 / RFU, NRIP1 / Fold change vs veh, NRIP1 / RFU, PTTG1IP / Fold change vs veh, PTTG1IP / RFU, CAPN2 / Fold change vs veh, CAPN2 / RFU, MED14 / Fold change vs veh, MED14 / RFU, SNORA58 / Fold change vs veh, SNORA58 / RFU, C1orf63 / Fold change vs veh, C1orf63 / RFU, LRRFIP1 / Fold change vs veh, LRRFIP1 / RFU, NDUFAF7 / Fold change vs veh, NDUFAF7 / RFU, SLC12A2 / Fold change vs veh, SLC12A2 / RFU, IBTK / Fold change vs veh, IBTK / RFU, ESF1 / Fold change vs veh, ESF1 / Fold change vs veh, TMEM50B / RFU, TAOK1 / Fold change vs veh, TAOK1 / RFU, ACBD3 / Fold change vs veh, ACBD3 / RFU, TMA16 / Fold change vs veh, TMA16 / RFU, RWDD3 / Fold change vs veh, RWDD3 / RFU, BCAT1 / Fold change vs veh, BCAT1 / RFU, EDEM3 / Fold change vs veh, EDEM3 / RFU, TMEM33 / Fold change vs veh, TMEM33 / RFU, WDR75 / Fold change vs veh, WDR75 / RFU, AHCTF1 / Fold change vs veh, AHCTF1 / RFU, TFRC / Fold change vs veh, TFRC / RFU, ZDHHC17 / Fold change vs veh, ZDHHC17 / RFU, NOM1 / Fold change vs veh, NOM1 / RFU, ARL8B / Fold change vs veh, ARL8B / RFU, ZBTB11 / Fold change vs veh, ZBTB11 / RFU, TAMM41 / Fold change vs veh, TAMM41 / RFU, KIAA1704 /// LOC100996395 / Fold change vs veh, KIAA1704 /// LOC100996395 / RFU, ING1 / Fold change vs veh, ING1 / RFU, TRMT61B / Fold change vs veh, TRMT61B / RFU, FUBP3 / Fold change vs veh, FUBP3 / RFU, TP53 / Fold change vs veh, TP53 / RFU, TNKS2 / Fold change vs veh, TNKS2 / RFU, ZFP14 / Fold change vs veh, ZFP14 / RFU, ACTR2 / Fold change vs veh, ACTR2 / RFU, PPP3R1 / Fold change vs veh, PPP3R1 / RFU, PIK3R1 / Fold change vs veh, PIK3R1 / RFU, HNRNPA1 / Fold change vs veh, HNRNPA1 / RFU, RNF170 / Fold change vs veh, RNF170 / RFU, ZNF28 / Fold change vs veh, ZNF28 / RFU, RNGTT / Fold change vs veh, RNGTT / RFU, OGT / Fold change vs veh, OGT / RFU, BRD1 / Fold change vs veh, BRD1 / RFU, MARS / Fold change vs veh, MARS / RFU, ZNF655 / Fold change vs veh, ZNF655 / RFU, FAHD1 / Fold change vs veh, FAHD1 / RFU, BDP1 / Fold change vs veh, BDP1 / RFU, LRRCC1 / Fold change vs veh, LRRCC1 / RFU, ARID1A / Fold change vs veh, ARID1A / RFU, ZNF146 / Fold change vs veh, ZNF146 / RFU, ZNF330 / Fold change vs veh, ZNF330 / RFU, GPN3 / Fold change vs veh, GPN3 / RFU, C9orf123 / Fold change vs veh, C9orf123 / RFU, N4BP2L2 / Fold change vs veh, N4BP2L2 / RFU, ARFIP1 / Fold change vs veh, ARFIP1 / RFU, FAM179B / Fold change vs veh, FAM179B / RFU, BCL10 / Fold change vs veh, BCL10 / RFU, UHRF1BP1L / Fold change vs veh, UHRF1BP1L / RFU, BET1 / Fold change vs veh, BET1 / RFU, CNOT2 / Fold change vs veh, CNOT2 / RFU, ZNF268 / Fold change vs veh, ZNF268 / Fold change vs veh, ZNF507 / RFU, DGCR2 / Fold change vs veh, DGCR2 / RFU, WDSUB1 / Fold change vs veh, WDSUB1 / Fold change vs veh, HSP90B1 /// MIR3652 / RFU, ADSS / Fold change vs veh, ADSS / RFU, GK / Fold change vs veh, GK / RFU, ZNF148 / Fold change vs veh, ZNF148 / RFU, TAF9 / Fold change vs veh, TAF9 / RFU, SLC1A5 / Fold change vs veh, SLC1A5 / RFU, SLMO2 / Fold change vs veh, SLMO2 / RFU, ABCC4 / Fold change vs veh, ABCC4 / RFU, LOC101060439 /// RAP1B / Fold change vs veh, LOC101060439 /// RAP1B / RFU, RFX7 / Fold change vs veh, RFX7 / RFU, GTPBP10 / Fold change vs veh, GTPBP10 / RFU, CNEP1R1 / Fold change vs veh, CNEP1R1 / RFU, BIVM-ERCC5 /// ERCC5 / Fold change vs veh, BIVM-ERCC5 /// ERCC5 / RFU, ILF3 / Fold change vs veh, ILF3 / RFU 11762660_at / Fold change /veh 11762660_at / RFU VCAN (11757783_s_at) / Fold change /veh VCAN (11757783_s_at) / RFU DDX43 (11728927_at) / Fold change /veh DDX43 (11728927_at) / RFU KRT8 (11758188_x_at) / Fold change /veh KRT8 (11758188_x_at) / RFU NKD1 (11759106_at) / Fold change /veh NKD1 (11759106_at) / RFU SRD5A1 (11742802_a_at) / Fold change /veh SRD5A1 (11742802_a_at) / RFU TPSAB1 /// TPSB2 (11721975_s_at) / Fold change /veh TPSAB1 /// TPSB2 (11721975_s_at) / RFU GSTM3 (11746129_a_at) / Fold change /veh GSTM3 (11746129_a_at) / RFU IL23R (11737362_x_at) / Fold change /veh IL23R (11737362_x_at) / RFU TMEM51 (11727254_a_at) / Fold change /veh TMEM51 (11727254_a_at) / RFU PIWIL2 (11732686_x_at) / Fold change /veh PIWIL2 (11732686_x_at) / RFU ORM1 (11744905_x_at) / Fold change /veh ORM1 (11744905_x_at) / RFU CCDC152 (11743942_at) / Fold change /veh CCDC152 (11743942_at) / RFU ECM1 (11717891_a_at) / Fold change /veh ECM1 (11717891_a_at) / RFU IL23R (11748794_a_at) / Fold change /veh IL23R (11748794_a_at) / RFU TNFAIP8L3 (11732012_x_at) / Fold change /veh TNFAIP8L3 (11732012_x_at) / RFU MBOAT4 (11741988_at) / Fold change /veh MBOAT4 (11741988_at) / RFU 11764193_at / Fold change /veh 11764193_at / RFU TMEM53 (11763286_at) / Fold change /veh TMEM53 (11763286_at) / RFU MAGEB2 (11727129_at) / Fold change /veh MAGEB2 (11727129_at) / RFU TMEM200A (11744735_a_at) / Fold change /veh TMEM200A (11744735_a_at) / RFU CCDC152 (11751479_a_at) / Fold change /veh CCDC152 (11751479_a_at) / RFU FAM211A (11726209_a_at) / Fold change /veh FAM211A (11726209_a_at) / RFU RGS16 (11746705_a_at) / Fold change /veh RGS16 (11746705_a_at) / RFU VCAN (11755009_s_at) / Fold change /veh VCAN (11755009_s_at) / RFU RHOB (11743442_s_at) / Fold change /veh RHOB (11743442_s_at) / RFU RGS16 (11720943_a_at) / Fold change /veh RGS16 (11720943_a_at) / RFU RGS16 (11720944_at) / Fold change /veh RGS16 (11720944_at) / RFU, VPS4B / Fold change vs veh, VPS4B / RFU, CREB1 / Fold change vs veh, CREB1 / RFU, DNAJC13 / Fold change vs veh, DNAJC13 / RFU, GNAQ / Fold change vs veh, GNAQ / RFU, CDK5R1 / Fold change vs veh, CDK5R1 / RFU, ZRANB3 / Fold change vs veh, ZRANB3 / RFU, CUL4A / Fold change vs veh, CUL4A / RFU, CCNY / Fold change vs veh, CCNY / RFU, UFL1 / Fold change vs veh, UFL1 / RFU, COG3 / Fold change vs veh, COG3 / RFU, DIAPH2 / Fold change vs veh, DIAPH2 / RFU, SKA2 / Fold change vs veh, SKA2 / RFU, AFF3 / Fold change vs veh, AFF3 / RFU, LMF1 / Fold change vs veh, LMF1 / RFU, IPO11 / Fold change vs veh, IPO11 / RFU, DFFB / Fold change vs veh, DFFB / RFU, FOXP1 / Fold change vs veh, FOXP1 / RFU, CARD8 / Fold change vs veh, CARD8 / RFU, STRN3 / Fold change vs veh, STRN3 / RFU, ADK / Fold change vs veh, ADK / RFU, RASSF2 / Fold change vs veh, RASSF2 / RFU, WIPF1 / Fold change vs veh, WIPF1 / RFU, LARP1B / Fold change vs veh, LARP1B / RFU, RASA1 / Fold change vs veh, RASA1 / RFU, RB1 / Fold change vs veh, RB1 / RFU, PPFIA1 / Fold change vs veh, PPFIA1 / RFU, MAT2A / Fold change vs veh, MAT2A / RFU, CCT5 / Fold change vs veh, CCT5 / RFU, WDR92 / Fold change vs veh, WDR92 / RFU, CUX1 / Fold change vs veh, CUX1 / RFU, TTC7A / Fold change vs veh, TTC7A / RFU, TMEM135 / Fold change vs veh, TMEM135 / RFU, DEPTOR / Fold change vs veh, DEPTOR / RFU, CPM / Fold change vs veh, CPM / RFU, DNAJB6 / Fold change vs veh, DNAJB6 / RFU, CACNA2D3 / Fold change vs veh, CACNA2D3 / RFU, DTX4 / Fold change vs veh, DTX4 / RFU, TFCP2 / Fold change vs veh, TFCP2 / RFU, GMCL1 /// GMCL1P1 / Fold change vs veh, GMCL1 /// GMCL1P1 / RFU, AEBP2 / Fold change vs veh, AEBP2 / RFU, SNHG1 /// SNORD22 /// SNORD25 /// SNORD26 /// SNORD27 /// SNORD28 /// SNORD29 /// SNORD31 / Fold change vs veh, SNHG1 /// SNORD22 /// SNORD25 /// SNORD26 /// SNORD27 /// SNORD28 /// SNORD29 /// SNORD31 / Fold change (Aza/veh), C12orf56 (ProbeSet 11735607_a_at) / Fold change (ACY-1035/veh), C12orf56 (ProbeSet 11735607_a_at) / Fold change (Aza/veh), FGFR1OP (ProbeSet 11751329_s_at) / Fold change (ACY-1035/veh), FGFR1OP (ProbeSet 11751329_s_at) / Fold change (Aza/veh), VPS36 (ProbeSet 11739960_a_at) / Fold change (ACY-1035/veh), VPS36 (ProbeSet 11739960_a_at) / RFU SYPL1 (11715823_x_at) / Fold change /veh SYPL1 (11715823_x_at) / RFU IGFBP7 (11715501_s_at) / Fold change /veh IGFBP7 (11715501_s_at) / RFU REEP3 (11722064_at) / Fold change /veh REEP3 (11722064_at) / RFU IGLL1 (11728026_x_at) / Fold change /veh IGLL1 (11728026_x_at): dose or concentration left out as unconfirmed
Conditions: ProbeSet 11729173_a_at; LIST D

Nc1ccc(-c2cccs2)cc1NC(=O)c1ccc2c(c1)cc(C1CC1)n2CCN1CCOCC1 [ACY-1035]
RFU, SKA2: 338.69 RFU
